Measurements: patent US10030020B2, “Spirocycle compounds and methods of making and using same” (Abide Therapeutics, Inc., priority 2016, dated 2018)
Where two headings read alike, the source gives them in different places.

Assays:
ABHD6 [1] = biological target: T1, ABHD6 (Mus musculus (Mouse), UniProt Q8R2Y0); assay: In vitro competitive activity-based protein profiling (mouse brain membrane fraction or cell lysates), ABHD6 band; assay type: biochemical; conditions: for inhibition at 1 µM: read-out: ABHD6 % Inh 1 μM (mouse)
Outline: (§1)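 Mouse proteome samples (brain membrane fraction or cell lysate, 1.0 mg/mL protein) were pretreated with varying inhibitor concentrations and subsequently probed with fluorophosphonate-rhodamine, each step lasting 30 min at 37° C. Labelled proteins were separated by SDS-PAGE, and band fluorescence was imaged and quantified.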

MAGL [2] = biological target: T2, MAGL (Mus musculus (Mouse), UniProt O35678); assay: In vitro competitive activity-based protein profiling (mouse brain membrane fraction or cell lysates), MAGL band; assay type: biochemical; conditions: for inhibition at 1 µM: read-out: MAGL % Inh 1 μM (mouse)
Experimental: In Vitro Competitive Activity-Based Protein Profiling.
Proteomes (mouse brain membrane fraction or cell lysates) (50 μL, 1.0 mg/mL total protein concentration) were preincubated with varying concentrations of inhibitors at 37° C. After 30 min, FP—Rh (1.0 μL, 50 μM in DMSO) was added and the mixture was incubated for another 30 min at 37° C. Reactions were quenched with SDS loading buffer (50 μL-4×) and run on SDS-PAGE.

MAGL [3] = biological target: MAGL (Homo sapiens (Human), UniProt Q99685); assay: In vitro competitive activity-based protein profiling (human prefrontal cortex or cell membrane fractions; hMAGL expressed in HEK293T cells); assay type: biochemical
Experimental: In Vitro Competitive Activity-Based Protein Profiling (Human).
Proteomes (human prefrontal cortex or cell membrane fractions) (50 μL, 1.0-2.0 mg/mL total protein concentration) were preincubated with varying concentrations of inhibitors at 37° C. After 30 min, FP—Rh or JW912 (1.0 μL, 50 μM in DMSO) was added and the mixture was incubated for another 30 min at room temperature. Reactions were quenched with SDS loading buffer (15 μL-4×) and run on SDS-PAGE.
Recombinant Expression of Human MAGL in HEK293T Cells.
Cell lysates were diluted with mock proteomes for use in competitive ABPP experiments.

ABHD6 [4] = biological target: T1, ABHD6; assay: Mouse brain proteomes from inhibitor treated mice (oral gavage, sacrificed 4 h after administration, ABPP analysis), ABHD6; assay type: in vivo, mouse (C57Bl/6J); conditions: 5 mg/kg oral gavage
Outline: (§2)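 Oral dosing of C57Bl/6J wild-type mice at 5 mg/kg, brain collection 4 h afterwards, then ABPP of brain proteomes to give % target inhibition.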

FAAH [5] = biological target: T3, FAAH (Mus musculus (Mouse), UniProt O08914); assay: In vitro competitive activity-based protein profiling (mouse brain membrane fraction or cell lysates), FAAH band; assay type: biochemical; conditions: for inhibition at 1 µM: read-out: FAAH % Inh 1 μM (mouse)
Outline: as §1

MAGL [6] = biological target: T2, MAGL; assay: Mouse brain proteomes from inhibitor treated mice (oral gavage, sacrificed 4 h after administration, ABPP analysis); assay type: in vivo, mouse (C57Bl/6J); conditions: 5 mg/kg oral gavage
Outline: as §2

FAAH [7] = biological target: T3, FAAH; assay: Mouse brain proteomes from inhibitor treated mice (oral gavage, sacrificed 4 h after administration, ABPP analysis), FAAH; assay type: in vivo, mouse (C57Bl/6J); conditions: 5 mg/kg oral gavage
Outline: as §2

[8] = human proteome, competitive ABPP
[9] = mouse proteome, competitive ABPP

T1 sequence (Q8R2Y0 whole entry): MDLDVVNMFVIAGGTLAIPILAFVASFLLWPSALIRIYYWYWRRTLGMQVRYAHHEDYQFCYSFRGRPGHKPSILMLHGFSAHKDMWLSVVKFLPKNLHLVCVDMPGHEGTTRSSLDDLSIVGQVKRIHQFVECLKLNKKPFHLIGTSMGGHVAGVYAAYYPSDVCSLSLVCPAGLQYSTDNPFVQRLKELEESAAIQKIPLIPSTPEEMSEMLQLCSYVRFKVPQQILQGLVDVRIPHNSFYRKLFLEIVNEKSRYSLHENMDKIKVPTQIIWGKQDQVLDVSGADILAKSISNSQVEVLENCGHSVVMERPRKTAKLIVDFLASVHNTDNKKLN
T3 sequence (O08914 whole entry): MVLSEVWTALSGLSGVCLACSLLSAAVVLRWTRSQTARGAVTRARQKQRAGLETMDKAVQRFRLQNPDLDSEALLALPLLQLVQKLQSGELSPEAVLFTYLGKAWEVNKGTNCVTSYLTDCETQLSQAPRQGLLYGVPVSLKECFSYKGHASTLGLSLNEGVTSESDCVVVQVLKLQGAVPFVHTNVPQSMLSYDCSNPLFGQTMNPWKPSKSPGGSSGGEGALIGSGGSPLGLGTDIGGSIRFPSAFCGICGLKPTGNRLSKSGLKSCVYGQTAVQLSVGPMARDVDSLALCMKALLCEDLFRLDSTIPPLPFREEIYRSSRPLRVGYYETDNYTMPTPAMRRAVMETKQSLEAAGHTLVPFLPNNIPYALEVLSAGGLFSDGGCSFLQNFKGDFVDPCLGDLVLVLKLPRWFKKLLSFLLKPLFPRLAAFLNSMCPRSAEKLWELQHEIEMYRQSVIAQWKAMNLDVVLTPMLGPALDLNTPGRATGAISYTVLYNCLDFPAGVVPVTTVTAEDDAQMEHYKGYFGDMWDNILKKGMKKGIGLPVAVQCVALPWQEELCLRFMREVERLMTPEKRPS
T2 sequence (O35678 whole entry): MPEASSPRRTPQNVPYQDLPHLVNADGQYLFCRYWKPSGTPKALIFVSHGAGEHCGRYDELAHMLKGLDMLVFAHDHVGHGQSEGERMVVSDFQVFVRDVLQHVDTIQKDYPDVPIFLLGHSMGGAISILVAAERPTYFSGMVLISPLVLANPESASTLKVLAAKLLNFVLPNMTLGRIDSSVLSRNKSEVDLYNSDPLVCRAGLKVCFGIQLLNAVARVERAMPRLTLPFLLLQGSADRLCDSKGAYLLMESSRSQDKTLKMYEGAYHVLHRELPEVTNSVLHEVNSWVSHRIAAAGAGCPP
Chain of MAGL (Homo sapiens (Human), UniProt Q99685) (Q99685 whole entry): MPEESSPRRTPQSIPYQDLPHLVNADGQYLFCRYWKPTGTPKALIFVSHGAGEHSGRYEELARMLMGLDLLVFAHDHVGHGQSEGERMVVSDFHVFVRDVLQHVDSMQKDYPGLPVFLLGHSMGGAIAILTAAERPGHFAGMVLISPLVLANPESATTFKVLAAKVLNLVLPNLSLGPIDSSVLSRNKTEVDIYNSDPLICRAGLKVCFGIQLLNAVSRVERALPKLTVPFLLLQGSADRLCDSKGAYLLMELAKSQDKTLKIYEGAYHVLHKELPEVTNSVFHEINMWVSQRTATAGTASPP

inhibition at 1 µM (ABHD6 [1]; mouse) [%] | inhibition at 1 µM (MAGL [2]; 1 μM, mouse) [%] | IC50 (MAGL [3]; human) [nM] | inhibition at 1 µM (FAAH [5]; 1 μM, mouse) [%] | inhibition at 1 µM (ABHD6 [1]; mouse proteome) [%] | inhibition at 1 µM (MAGL [2]; 1 μM, mouse proteome) [%] | IC50 (MAGL [3]; [8]) [nM] | inhibition at 1 µM (FAAH [5]; 1 μM, mouse proteome) [%] | Compound | other results
25 to 75 | > 75 | < 100 | < 25 | – | – | – | – | O=C(O)C1CCN(C(=O)c2cc(C(F)(F)F)ccc2CN2CCCC23CCN(C(=O)OC(C(F)(F)F)C(F)(F)F)CC3)CC1 [Example 281] | ABHD6 % Inh 5 mg/kg (mouse) (ABHD6 [4]): # (# is <25%); MAGL % Inh 5 mg/kg (mouse) (MAGL [6]): # (# is <25%); FAAH % Inh 5 mg/kg (mouse) (FAAH [7]): # (# is <25%)
25 to 75 | > 75 | < 100 | < 25 | – | – | – | – | O=C(O)C1CCN(c2cc(Cl)cc(CN3CCC4(CCN(C(=O)OC(C(F)(F)F)C(F)(F)F)CC4)C3)c2)CC1 [Example 232] | –
≥ 75 | > 75 | < 100 | < 25 | – | – | – | – | CC1(C(=O)O)CN(c2cc(CN3CCC4(CCN(C(=O)OC(C(F)(F)F)C(F)(F)F)CC4)C3)cc(C(F)(F)F)c2)CCO1 (stereo not drawn) [Example 252] | –
≥ 75 | > 75 | < 100 | < 25 | – | – | – | – | O=C(O)C1COCCN1c1cc(CN2CCC3(CCN(C(=O)OC(C(F)(F)F)C(F)(F)F)CC3)C2)cc(C(F)(F)F)c1 (stereo not drawn) [Example 278] | –
≥ 75 | > 75 | < 100 | < 25 | – | – | – | – | O=C(O)C1CN(c2cc(CN3CCC4(CCN(C(=O)OC(C(F)(F)F)C(F)(F)F)CC4)C3)cc(C(F)(F)F)c2)CCO1 (stereo not drawn) [Example 277] | –
≥ 75 | > 75 | < 100 | < 25 | – | – | – | – | O=C(O)C1CCN(Cc2ccc(CN3CCC4(CCN(C(=O)OC(C(F)(F)F)C(F)(F)F)CC4)C3)cc2C(F)(F)F)CC1 [Example 247] | –
25 to 75 | > 75 | < 100 | < 25 | – | – | – | – | NC(=O)C1CCN(C(=O)c2cc(C(F)(F)F)ccc2CN2CCCC23CCN(C(=O)OC(C(F)(F)F)C(F)(F)F)CC3)CC1 [Example 276] | –
≥ 75 | > 75 | < 100 | < 25 | – | – | – | – | O=C(O)C1CCN(c2cc(CN3CCC4(CCN(C(=O)OC(C(F)(F)F)C(F)(F)F)CC4)C3)ccc2C(F)(F)F)CC1 [Example 234] | –
≥ 75 | > 75 | < 100 | < 25 | – | – | – | – | O=C(O)C1CCN(c2cc(CN3CCC4(CCN(C(=O)OC(C(F)(F)F)C(F)(F)F)CC4)C3)cc(C(F)(F)F)c2)CC1 [Example 279] | –
< 25 | > 75 | < 100 | < 25 | – | – | – | – | C#Cc1ccc(CN2CCCC23CCN(C(=O)OC(C(F)(F)F)C(F)(F)F)CC3)cc1 [Example 280] | –

Further lines, the compound ahead of its results:

Compound | inhibition at 1 µM (ABHD6 [1]; mouse) [%] | inhibition at 1 µM (MAGL [2]; 1 μM, mouse) [%] | IC50 (MAGL [3]; human) [nM] | inhibition at 1 µM (FAAH [5]; 1 μM, mouse) [%] | inhibition at 1 µM (ABHD6 [1]; mouse proteome) [%] | inhibition at 1 µM (MAGL [2]; 1 μM, mouse proteome) [%] | IC50 (MAGL [3]; [8]) [nM] | inhibition at 1 µM (FAAH [5]; 1 μM, mouse proteome) [%] | other results
CC1(C(=O)O)CCCN(c2cc(C(F)(F)F)ccc2CN2CCC3(CCN(C(=O)OC(C(F)(F)F)C(F)(F)F)CC3)C2)C1 (stereo not drawn) [Example 216] | – | – | – | – | 25 to 75 | > 75 | < 100 | < 25 | ABHD6 % Inh 5 mg/kg (mouse) (ABHD6 [4]): # (# is <25%); MAGL % Inh 5 mg/kg (mouse) (MAGL [6]): ## (## is equal to or greater than 25% but less than 75%); FAAH % Inh 5 mg/kg (mouse) (FAAH [7]): # (# is <25%)
O=C(O)C1CCN(c2cc(CN3CCCC34CCN(C(=O)OC(C(F)(F)F)C(F)(F)F)CC4)cc(C(F)(F)F)c2)C1 (stereo not drawn) [Example 203] | – | – | – | – | < 25 | > 75 | < 100 | < 25 | –
O=C(O)c1cc(CN2CCCC23CCN(C(=O)OC(C(F)(F)F)C(F)(F)F)CC3)cc(C(F)(F)F)c1 [Example 206] | – | – | – | – | 25 to 75 | > 75 | < 100 | < 25 | –
O=C(O)[C@@H]1CCCN(c2cc(CN3CCC4(CCN(C(=O)OC(C(F)(F)F)C(F)(F)F)CC4)C3)cc(C(F)(F)F)c2)C1 [Example 222] | < 25 | – | < 100 | – | – | – | – | – | MAGL % Inh 1 μM (mouse) (MAGL [2]; 1 μM, mouse): ### (### is ≥75%); FAAH % Inh 1 μM (mouse) (FAAH [5]; 1 μM, mouse): # (# is <25%)
O=C(O)C1CCN(c2cc(CN3CCC4(CCN(C(=O)OC(C(F)(F)F)C(F)(F)F)CC4)C3)cc(C(F)(F)F)c2)C1 (stereo not drawn) [Example 202] | – | – | – | – | ≥ 75 | > 75 | < 100 | < 25 | –
C#Cc1ccc(CN2CCCC23CCN(C(=O)OC(C(F)(F)F)C(F)(F)F)CC3)c(N2CCC(C(=O)O)CC2)c1 [Example 198, 1-{5-Ethynyl-2-[(8-{[(1,1,1,3,3,3-hexafluoropropan-2-yl)oxy]carbonyl}-1,8-diazaspiro[4.5]decan-1-yl)methyl]phenyl}piperidine-4-carboxylic acid] | – | – | – | – | < 25 | > 75 | < 100 | < 25 | –
CC1(C(=O)O)CCCN(c2cc(CN3CCC4(CCN(C(=O)OC(C(F)(F)F)C(F)(F)F)CC4)C3)cc(C(F)(F)F)c2)C1 (stereo not drawn) [Example 223] | < 25 | > 75 | < 100 | < 25 | – | – | – | – | –
O=C(O)C1CN(c2cc(C(F)(F)F)ccc2CN2CCC3(CCN(C(=O)OC(C(F)(F)F)C(F)(F)F)CC3)C2)CCO1 (stereo not drawn) [Example 209] | – | – | – | – | 25 to 75 | > 75 | < 100 | < 25 | –
O=C(OC(C(F)(F)F)C(F)(F)F)N1CCC2(CCCN2Cc2cc(-c3nnn[nH]3)cc(C(F)(F)F)c2)CC1 [Example 205] | – | – | – | – | 25 to 75 | > 75 | < 100 | < 25 | –
O=C(O)C1CCN(c2cc(C(F)(F)F)ccc2CN2CCC3(CCN(C(=O)OC(C(F)(F)F)C(F)(F)F)CC3)C2)C1 (stereo not drawn) [Example 201] | – | – | – | – | ≥ 75 | > 75 | < 100 | < 25 | –
NC(=O)c1cc(CN2CCCC23CCN(C(=O)OC(C(F)(F)F)C(F)(F)F)CC3)ccc1C(F)(F)F [Example 178, 1,1,1,3,3,3-hexafluoropropan-2-yl 1-(3-carbamoyl-4-(trifluoromethyl)benzyl)-1,8-diazaspiro[4.5]decane-8-carboxylate] | – | – | – | – | 25 to 75 | > 75 | < 100 | < 25 | IC50 (ABHD6 [1]; [9]): > 1000 nM; IC50 (MAGL [2]; [9]): < 100 nM; IC50 (FAAH [5]; [9]): > 1000 nM
O=C(O)[C@H]1CCCN(c2cc(C(F)(F)F)ccc2CN2CCC3(CCN(C(=O)OC(C(F)(F)F)C(F)(F)F)CC3)C2)C1 [Example 215] | – | – | – | – | ≥ 75 | > 75 | < 100 | < 25 | –
O=C(O)C1CCCCN1c1cc(CN2CCC3(CCN(C(=O)OC(C(F)(F)F)C(F)(F)F)CC3)C2)cc(C(F)(F)F)c1 (stereo not drawn) [Example 225] | < 25 | > 75 | < 100 | < 25 | – | – | – | – | –
CC1(C(=O)O)CCN(c2cc(CN3CCC4(CCN(C(=O)OC(C(F)(F)F)C(F)(F)F)CC4)C3)cc(C(F)(F)F)c2)C1 (stereo not drawn) [Example 229] | ≥ 75 | > 75 | < 100 | < 25 | – | – | – | – | –
